Experimental data from paper PMC4145316, “Cytotoxic and Apoptosis-Inducing Activity of Triterpene Glycosides from Holothuria scabra and Cucumaria frondosa against HepG2 Cells” (Marine Drugs, 2014).

Experiments:
HepG2 cells [1] = assay: Apoptosis morphology, acridine orange and Hoechst 33342 staining; type: cell-based, human; settings: 2.5 and 2.75 μg/mL for 8 h; AO and Hoechst 33342 staining
Source text: The induction of apoptosis in cancer cells has emerged as an exciting possibility for the development of selective cancer therapies. Apoptosis is characterized by distinct morphological features such as cell shrinkage, loss of contact with neighboring cells, formation of cytoplastic vacuoles, chromatin condensation, nuclear-membrane blebbing, oligonucleosomal DNA fragmentation, and finally breakdown of the cell into smaller units (apoptotic bodies). To further characterize the anticancer activity of 1, disorganization of the nucleus with chromatin changes in HepG2 cells treated with 1 at the concentration of 2.5 and 2.75 μg/mL for 8 h was characterized using acridine orange (OA) and Hoechst 33342 staining under fluorescence microscope.
HepG2 cells were seeded at 1 × 10^5 cells/mL into 24-well plates and then incubated at 37 °C in a humidified atmosphere with 5% CO2. After 24 h, the cells were treated with 1 at the final concentrations of 0, 2.5 and 2.75 μg/mL for 8 h. After washed twice with PBS, cells were stained with 100 μL acridine orange (AO) solution (10 μg/mL) or Hoechst 33342 solution (5 μg/mL) for 30 min, and then visualized by fluorescence microscope (Olympus, Tokyo, Japan) with 488 nm stimulation and 500–520 nm emission or 350 nm stimulation and 460 nm emission, respectively.

[2] = test system: human leukemia (K562) cells; assay: MTT cytotoxicity assay, K562 cells; type: cell-based; settings: means ± SD (n = 3)
Procedure: (§1) Human hepatoma (HepG2), human cervical cancer (HeLa), human leukemia (K562) and human liver (HL-7702) cells were obtained by Shanghai Institute of Biochemistry and Cell Biology, and maintained in the logarithmic phase of growth in RPMI-1640 complete medium supplemented with 2 mM L-glutamine (Sigma Chemical Co., Saint Louis, MO, USA), 100 IU/mL penicillin, 100 μg/mL streptomycin and 10% FCS at 37 °C under humidified air with 5% CO2.
(§2) The effect of compounds 1–13 on the viability of HepG2, HeLa, K562 and HL-7702 cells was determined by MIT assay as described previously. Briefly, the tumor and normal cells were seeded at 1 × 10^4 cells/well in a 96-well microtiter plate and incubated at 37 °C in a humidified atmosphere with 5% CO2. After 24 h, compounds 1–13, the positive drug CDDP or RPMI-1640 medium were added into each well, and the plates were incubated at 37 °C for the indicated time. Each concentration was repeated four wells. 50 μL of MTT solution (2 mg/mL) was added to each well 4 h before incubation end, and incubated further for 4 h. The plates were centrifuged (1400× g, 5 min) and the untransformed MTT was removed carefully by pipetting. To each well, 150 μL of DMSO was added and the absorbance was evaluated in an ELISA reader at 570 nm after 15 min. The inhibitory rates and 50% inhibitory concentrations (IC50) values towards cell viability were calculated by NDST software. Each test was performed in triplicate.

HepG2 cells [3] = assay: HepG2 cell viability, MTT, 6 h and 12 h; type: cell-based, human
Procedure: To determine the effects of 1 on the viability of HepG2 cell, the cells were cultured with 1 at different concentrations for 6 h and 12 h, and cell viability was measured using MTT assay.
Figure 2 Effect of 1 on cell viability of HepG2 cells. HepG2 cells were treated with the various concentrations of 1 for 6 and 12 h, and cell viability was measured using the MTT assay. The values are presented as means ± SD (n = 5).
as §2

[4] = test system: Caspase-3, Caspase-8 and Caspase-9 mRNA in HepG2 cells; assay: RT-PCR, Caspase-3, Caspase-8 and Caspase-9 mRNA expression; type: cell-based, human
Source text: Caspases play an important role in cell apoptosis. Activation of caspase appears to be directly responsible for many molecular and structural changes in apoptosis. The caspase-dependent process is associated with two pathways of anticancer drug-induced apoptosis, the extrinsic (death receptor) pathway and the intrinsic (mitochondrial) pathway. The extrinsic pathway is initiated by death ligands, such as FasL, leading to cleavage of pro-Caspase-8 to its active form, which subsequently activates downstream effectors such as Caspase-3. The intrinsic pathway is characterized by mitochondria dysfunction, resulting in the reduction of mitochondrial transmembrane potentials, mitochondrial translocation of the pro-apoptotic Bax protein, cytochrome c release and activation of downstream effector caspases such as Caspase-9 [39, 40]. Caspase-3 is one of the downstream effectors of the caspase family, and is considered to involve both the mitochondrial apoptotic pathway and the death receptor pathway. […]
Figure 6 Effects of 1 on the mRNA expression level of Caspase-3, Caspase-8 and Caspase-9 in HepG2 cells. […] The mRNA expression levels of β-actin, Caspase-3, Caspase-8 and Caspase-9 were detected by RT-PCR using specific primers. […]
Total RNA was extracted with TRIzol reagent (Invitrogen, Grand Island, NY, USA) according to the manufacturer’s instructions, and reverse transcription was performed as previously. […] Semi-quantitative RT-PCR was performed using β-actin as an internal control to normalize gene expression for the PCR templates. The PCR products were analyzed by electrophoresis on a 1.5% agarose gel containing goldview (5 μL/100 mL), and the amplified bands were visualized and photographed using JS-680B Gel Documentation and Analysis System (Shanghai Peiqing Science and Technology Co., Ltd., Shanghai, China). The size of the amplified fragments was determined by comparison with a standard DNA marker.

[5] = test system: human cervical cancer (HeLa) cells; assay: MTT cytotoxicity assay, HeLa cells; type: cell-based; settings: means ± SD (n = 3)
Procedure: as §1, §2

[6] = test system: human gastric cancer MKN-45 cells; settings: read-out: IC50 against MKN-45 cells; cited from earlier work
[7] = no difference among concentrations at 2 h

SMILES: COC1C(O)C(CO)OC(OC2C(O)C(CO)OC(OC3C(C)OC(OC4C(OC5CCC6(C)C7=CC(O)C89C(=O)OC(C)(CCCC(C)C)C8(O)CCC9(C)C7CCC6C5(C)C)OCC(OS(=O)(=O)O)C4O)C(O)C3O)C2O)C1O.[Na+] (stereo not shown) [Echinoside A (1), Echinoside A]
- apoptosis in HepG2 cells (morphology) (HepG2 cells [1]): could induce apoptosis
- IC50 (μg/mL) K562 [2]: 1.61 ± 0.11 µg/mL
- cell viability of HepG2 cells at 2.25 μg/mL (HepG2 cells [3]; 2.25 μg/mL): hardly influenced cell viability
- cell viability of HepG2 cells at 3 μg/mL (HepG2 cells [3]; 3 μg/mL): completely inhibited
- effective concentration range for inhibiting survival of HepG2 cells (HepG2 cells [3]; MTT): 2.25−3 μg/mL
- expression level of Caspase-8 mRNA [4, 7]: significantly up-regulated
- expression level of Caspase-9 mRNA [4, 7]: significantly up-regulated
- expression level of Caspase-3 mRNA ([4]; time- and dose-dependent): markedly up-regulated
- IC50 (μg/mL) HeLa [5]: 1.25 ± 0.16 µg/mL
- IC50 [6]: 1860 nM
